One test deals with Plasminogen (Homo sapiens, UniProt P00747). The test is described as follows: Inhibition of plasmin.
A further test has as its target Cathepsin B (Homo sapiens, UniProt P07858). The test is described as follows: Inhibition of cathepsin B using Z-Phe-Arg-MCA as substrate incubated for 10 mins prior to substrate addition measured after 30 mins by fluorimetric analysis.
Test [1] addresses Prothrombin (Bos taurus, UniProt P00735). The test is described as follows: Inhibition of bovine thrombin using Bz-Phe-Val-Arg-pNA as substrate incubated for 5 mins prior to substrate addition measured after 30 mins by spectrophotometric analysis.
In test [2] the target is Prothrombin (Homo sapiens, UniProt P00734). The test is described as follows: Inhibition of thrombin.
A short description of test [3]: Selectivity ratio of EC50 for bovine thrombin to EC50 for cathepsin B.
Test [4] in a line: Inhibition of trypsin.

Sequence of Plasminogen (P00747 97-580 limits assumed): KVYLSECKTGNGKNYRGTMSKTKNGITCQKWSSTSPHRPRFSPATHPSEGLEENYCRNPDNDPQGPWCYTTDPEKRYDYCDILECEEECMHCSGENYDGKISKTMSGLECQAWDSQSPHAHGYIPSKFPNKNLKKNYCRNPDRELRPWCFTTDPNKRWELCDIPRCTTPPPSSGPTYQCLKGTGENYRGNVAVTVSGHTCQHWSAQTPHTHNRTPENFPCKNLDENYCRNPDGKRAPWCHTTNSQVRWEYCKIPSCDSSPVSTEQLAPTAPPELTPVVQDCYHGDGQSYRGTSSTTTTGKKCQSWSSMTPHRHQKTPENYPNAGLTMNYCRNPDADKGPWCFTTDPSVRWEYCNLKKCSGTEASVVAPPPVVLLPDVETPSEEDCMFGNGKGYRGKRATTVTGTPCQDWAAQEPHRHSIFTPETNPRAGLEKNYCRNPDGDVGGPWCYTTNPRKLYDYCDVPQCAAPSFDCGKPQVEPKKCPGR
Sequence of Plasminogen (P00747 581-810 limits assumed): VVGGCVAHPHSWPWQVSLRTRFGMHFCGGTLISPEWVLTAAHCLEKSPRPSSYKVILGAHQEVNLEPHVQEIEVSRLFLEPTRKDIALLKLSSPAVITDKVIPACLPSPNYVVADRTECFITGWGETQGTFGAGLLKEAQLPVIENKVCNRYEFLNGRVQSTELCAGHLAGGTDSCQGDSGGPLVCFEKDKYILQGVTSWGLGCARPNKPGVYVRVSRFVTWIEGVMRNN

`C[C@H]1C[C@@H](C(=O)N[C@H](CO)CCCN=C(N)N)N(C(=O)[C@@H](CCc2ccc(O)cc2)NC(=O)[C@H](O)Cc2ccc(O)cc2)C1` [SPUMIGIN A]: the EC50 on Plasminogen stood at 4.9 µM; at Cathepsin B it was 0.2 µM; at Prothrombin [1] it was 2.1 µM; on Prothrombin [2] it was 7.5 µM.

For the compound `C[C@H]1C[C@@H](C(=O)N[C@H](CO)CCCNC(=N)N)N(C(=O)[C@@H](CCc2ccc(O)cc2)NC(=O)[C@H](O)Cc2ccc(O)cc2)C1` [SPUMIGIN A], the Ratio EC50 in test [3] worked out at 10. Moreover, a half-maximal response in test [4] (EC50) required 26.3 µM.

`C[C@H]1C[C@@H](C(=O)N[C@@H](CCCNC(=N)N)C(=O)O)N(C(=O)[C@@H](CCc2ccc(O)cc2)NC(=O)[C@H](O)Cc2ccc(O)cc2)C1` [SPUMIGIN B1] yielded an EC50 in test [4] of 33.1 µM.

Regarding `C[C@H]1C[C@@H](C(=O)NC(C=O)CCCNC(=N)N)N(C(=O)[C@@H](CCc2ccc(O)cc2)NC(=O)[C@H](O)Cc2ccc(O)cc2)C1` (stereo partly specified) [SPUMIGIN E], the EC50 in test [4] came to 0.3 µM.

For `C[C@H]1C[C@@H](C(=O)N(C)[C@H](CCCCN)C(=O)O)N(C(=O)[C@@H](CCc2ccc(O)cc2)NC(=O)[C@H](O)Cc2ccc(O)cc2)C1` [SPUMIGIN J], the half-maximal effective concentration (EC50) was found to be 0.7 µM on Cathepsin B and 4.9 µM at Prothrombin [1]. Moreover, in test [3], the Ratio EC50 is 7.

As a reminder, the EC50 is the midpoint of the concentration-response curve.

Source of the values: ChEMBL document CHEMBL2146468, “Thrombin inhibitors from the freshwater cyanobacterium Anabaena compacta” (J Nat Prod, 2012).
